Consider one substance from patent US8617563B2, “Antichlamydial agents” (Duke University, priority 2011, dated 2013).

For test [1], the system named is epithelial cells infected with C. muridarum. The experiment in a line: Host cell death (condensed nuclei) in C. muridarum infected cells. Format: cell-based. The following applies: dose-dependent, peptide at 12 hpi. How it is done: FIG. 12 depicts (A) low-magnification view of C. trachomatis LGV-L2 infected HeLa monolayers (30 h) treated with SEQ ID NO:7 or SEQ ID NO:11 peptides. (B) The frequency of condensed nuclei in treated cells is dependent on peptide concentration and Chlamydia infection. (C-D) Toxicity of CPAF inhibitors to Chlamydia-infected cells is observed in non-myeloid cells including human embryonic kidney cells HEK293 (C) and mouse embryo fibroblasts (D). […] (F-G) Cell death induced by anti-CPAF peptides requires Caspase-1 activation. HeLa cells infected with C. muridarum were treated with Ac-YVAD-CMK at 2 hpi, SEQ ID NO:7 peptide or SEQ ID NO:11 control peptide at 12 hpi and the percentage of infected cells with condensed nuclei was assessed at 48 hpi (F). Mouse lung fibroblasts (MLF) derived from congenic WT, ICE1^−/− and ASC^−/− animals were infected with C. muridarum and treated with the indicated concentrations of anti peptides 12 hpi. The percentage of infected cells with condensed nuclei was assessed at 48 hpi (G). LGV-L2 inclusions were immunostained with anti-L2 antisera and C. muridarum and C. caviae inclusions were immunostained with an anti-chlamydial LPS monoclonal antibody. Cell death in infected and uninfected cells treated with CPAF inhibitory peptides or control peptides was determined by counting the number of condensed nuclei of ˜1000 cells.

In test [2] the target is CPAF (Chlamydia trachomatis serovar D, UniProt O84866). The class given is biochemical, C. trachomatis. The note with it: GST-chlamydial substrates in presence of peptides. More on the design: 6xHis; made in house; host or cells: E. coli (pET30b). Here is the method: FIG. 4 depicts (A) Recombinant Chlamydia ORFs were tested for sensitivity to host and bacterial derived proteases. […] Purified his-tagged CPAF was incubated with GST-tagged chlamydial substrates at 37° C. for 20 min with increasing amounts of lactacystin. Cleavage products were run on an SDS PAGE gel and visualized with Coomassie blue staining. (C) Schematic summary of CPAF targets. […] Membranes from Chlamydia-infected HeLa cells were harvested and purified at 0, 24, 36 and 48 hours post-infection, and the abundance of the chlamydial proteins Ct005, IncC and IncD were monitored with specific antibodies. Na/K ATPase and IncG served as host and bacterial-loading controls, respectively.
Cytosols from Chlamydia-infected HeLa cells (40 hrs) or recombinant his-tagged CPAF were pre-treated with rabbit polyclonal anti-CPAF or anti-IncA antisera, and incubated with GST-tagged Chlamydia proteins for 20 min at 37° C. […] Three example proteins shown include a type-III secretion (T3S) core component (CdsQ) a T3S chaperone (Mcsc) and a T3S needle component (Ct584). Processing of recombinant proteins in A-B were monitored by immunoblot analysis with specific antibodies. (C) Protease inhibitor profile of recombinant CPAF. Example shown for the chlamydial substrate GST-IncC. Degradation products were visualized by SDS-PAGE followed by staining with Coomassie blue. […]
Uninfected and HeLa cells pre-infected with L2 for 30 hrs were treated with inhibitory peptides and infected with EBs for 10 min Tarp translocation was indirectly visualized with an anti-phosphotyrosine antibody (A) and quantified by counting 50 separate cells (B). The stability of newly translocated Tarp was assessed by infecting cells as in (A) but with S^35-labeled EBs, followed by sequential immunoprecipitation of Tarp and MOMP and Phosphoimager analysis of precipitated material (C (I-IV)). […] IC50 values were determined by assessing CPAF cleavage of an Abz-tagged CPAF substrate (SEQ ID NO:9) by HPLC. […] Extracellular bacteria were determined. […] The number of internalized EBs was quantified per cell (H). […]

In test [3] the test system is epithelial cells infected with C. trachomatis. Put plainly: Host cell death (condensed nuclei) in C. trachomatis infected cells. The class given is cell-based. The following applies: dose-dependent, peptide at 12 hpi. Here is the method: FIG. 11 depicts (A) that inhibiting CPAF activity induces host cell death. The indicated peptides (anti-CPAF peptide refers to SEQ ID NO:7) were added to infected cells 12 hpi and the percentage of infected cells with condensed nuclei was quantified at the indicated times. (B-C) Inhibition of CPAF activity induces apoptosis. Infected cells were treated with peptides and the percentage of AnnexinV-FITC positive (propidium iodide (PI) negative) was determined by flow cytometry (B). In parallel samples, cleavage of Caspase-3, a hallmark of apoptosome activation, was monitored by immunoblot analysis. Actin and MOMP are host and bacterial loading controls respectively. Staurosporine (2 μM)-treatment was used as a positive control and the pan-caspase inhibitor ZVAD-FMK were used as controls. (D) Cell death is blocked by a pan-Caspase inhibitor. Infected cells were treated as in (A) in the presence or absence of ZVAD-FMK, labeled with PI and analyzed by flow cytometry. Cells pre-treated with ZVAD-FMK and the control peptide lacked PI staining.
FIG. 12 depicts (A) low-magnification view of C. trachomatis LGV-L2 infected HeLa monolayers (30 h) treated with SEQ ID NO:7 or SEQ ID NO:11 peptides. […] HeLa cells infected with C. muridarum were treated with Ac-YVAD-CMK at 2 hpi, SEQ ID NO:7 peptide or SEQ ID NO:11 control peptide at 12 hpi and the percentage of infected cells with condensed nuclei was assessed at 48 hpi (F). […] The percentage of infected cells with condensed nuclei was assessed at 48 hpi (G). […] Cell death in infected and uninfected cells treated with CPAF inhibitory peptides or control peptides was determined by counting the number of condensed nuclei of ˜1000 cells.
FIG. 13 depicts (A) that Caspase-1 inhibitors block Chlamydia-mediated cell death. […] Cells were fixed and the percentage of cells with condensed nuclei determined at 24 hpi. […] Infected cells were labeled with a cell-permeable fluorescent substrate of Caspase-1 and treated with inhibitory peptides, and Caspase-1 activity was monitored by flow cytometry. […]

Where no end group is shown, it is not given here.

Chain of CPAF (O84866 1-234, added parts left off): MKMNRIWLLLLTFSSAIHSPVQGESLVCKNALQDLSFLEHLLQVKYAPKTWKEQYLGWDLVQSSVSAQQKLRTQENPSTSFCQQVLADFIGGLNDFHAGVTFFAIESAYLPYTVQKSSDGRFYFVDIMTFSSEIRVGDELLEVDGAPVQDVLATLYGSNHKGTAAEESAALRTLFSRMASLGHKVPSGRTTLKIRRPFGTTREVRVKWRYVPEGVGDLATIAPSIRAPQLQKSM
Chain of CPAF (O84866 276-601): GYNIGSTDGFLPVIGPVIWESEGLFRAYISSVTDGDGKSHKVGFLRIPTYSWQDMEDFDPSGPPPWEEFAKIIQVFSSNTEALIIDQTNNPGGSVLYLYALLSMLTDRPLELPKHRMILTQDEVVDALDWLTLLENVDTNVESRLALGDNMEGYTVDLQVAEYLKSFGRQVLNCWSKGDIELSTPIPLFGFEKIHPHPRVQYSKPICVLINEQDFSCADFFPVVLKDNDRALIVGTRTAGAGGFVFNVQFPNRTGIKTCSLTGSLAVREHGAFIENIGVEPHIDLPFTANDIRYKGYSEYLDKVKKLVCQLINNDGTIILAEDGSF

Take “SLFYSPMVPHFWAELRNHYATSGLKRRRRRRRRR-NH2 [SEQ ID NO:7]”: the “Number of condensed nuclei in C. muridarum infected cells” value in test [1] is “marked increase in the number of condensed nuclei”. For the same substance, the “Inhibition of degradation of CPAF substrates in vitro” value in test [2] is “broadly inhibited degradation of CPAF substrates”. Also, the “Number of condensed nuclei in C. trachomatis infected cells” value in test [3] is “marked increase in the number of condensed nuclei”.
